Measured values published in patent US20140271573A1, “PHARMACO-CELLULAR THERAPEUTIC METHOD FOR THE TREATMENT OF MUSCULAR DYSTROPHIES” (PONTIFICIA UNIVERSIDAD CATÓLICA DE CHILE, priority 2013, published 2014).
“Also recorded” adds a separate entry of the source.

How the values were obtained:
Type in all cases: in vivo, mouse
[1] = system: TGF-β1 canonical signaling pathway (p-Smad 2); assay: pSmad-2 indirect immunofluorescence in tibialis anterior cryosections of mdx mice; settings: exercised mdx mice, 1 mg/kg i.p. 3 times per week for 3 months
Experimental: FIG. 2. Andrographolide reduced expression and activity of the pro-fibrotic cytokine, TGF-β1, in mdx mice. To augment the extent of muscle fibrosis, 3 months old mdx mice were subjected to an exercise protocol for 3 months. Along this period one group was treated with 1 mg/kg andrographolide or vehicle (i.p. injections 3 time per week, 4 animal per group). A) TGF-β1 mRNA levels, an important pro-fibrotic cytokine, were determined in tibialis anterior muscle from Wild type (WT), Vehicle-Treated mdx and andrographolide-treated mdx mice by RT-qPCR using GAPDH as reference gene. Values correspond to the mean of dCT value±SD of three independent experiments, using four mice for each experimental condition and normalized to WT levels (*, P<0.05 relative to WT mice; #, P<0.05 relative to Vehicle-treated mdx mice). B) Detection of pSmad-2 (an intracellular TGF-β1 mediator) through indirect immunofluorescence analysis in cryosections of tibialis anterior muscle from Vehicle-treated and andrographolide-treated mdx mice. Bar corresponds to 200 μm.
(§1) Control or mdx (12 weeks old) male mice of C57BL/10 ScSn strain were studied. The animals were kept at room temperature with a […] night-day cycle and fed with pellets and water ad libitum. […]

[2] = system: mdx mice; assay: Serum creatine kinase (CK) measurement in mdx mice; settings: exercised mdx mice, 1 mg/kg i.p. 3 times per week for 3 months, vs vehicle
Experimental: FIG. 4. Andrographolide reduced skeletal muscle damage in mdx mice. To augment the extent of muscle fibrosis, 3 months old mdx mice were subjected to an exercise protocol for 3 months. Along this period one group was treated with 1 mg/kg andrographolide or vehicle (i.p. injections 3 time per week, 6 animal per group). […] B) Evans blue dye uptake in tibialis anterior muscle fibers from wild-type (WT), Vehicle-treated mdx and andrographolide-treated mdx mice. Nuclei were labeled with Hoechst. Mice were injected i.p. with 1% Evans blue dye 24 hours before muscle fixation. Bar corresponds to 200 μm. […] Values are expressed as mean±SD of three independent experiments, using eight mice for each experimental condition. (*, P<0.05 relative to WT mice; #, P<0.05 relative to Vehicle-treated mdx mice).
as §1
Mice were anesthetized by isofluorane gas, and blood was obtained from the periorbital vascular plexus directly into microhematocrit tubes (70 μl, Fisher Scientific). […] Serum CK was measured by enzymatic system (Valtek, Chile) according to the manufacturer instructions) (Osses and Brandan, 2002).

[3] = system: CTGF; assay: CTGF mRNA levels in tibialis anterior muscle of exercised mdx mice, RT-qPCR; settings: 1 mg/kg i.p. 3 times per week for 3 months, vs vehicle
Experimental: FIG. 3. Andrographolide modulates CTGF action in vivo. A) To augment the extent of muscle fibrosis, 3 months old mdx mice were subjected to an exercise protocol for 3 months. Along this period one group was treated with 1 mg/kg andrographolide or vehicle (i.p. injections 3 time per week, 4 animal per group). CTGF mRNA levels, a downstream TGF-β1 pro-fibrotic mediator) were determined in tibialis anterior muscle from Wild type (WT), Vehicle-Treated mdx and andrographolide-treated mdx mice by RT-qPCR using GAPDH as reference gene. Values correspond to the mean of dCT value±SD of three independent experiments, using four mice for each experimental condition and normalized to WT levels (*, P<0.05 relative to WT mice; #, P<0.05 relative to Vehicle-treated mdx mice). B) Detection of macrophages (F4/80 positive cells) through immunohistochemistry analysis in cryosections of tibialis anterior muscle from andrographolide-treated WT mice that overexpress CTGF by adenovirus (adv CTGF) infection.
Control or mdx (12 weeks old) male mice of C57BL/10 ScSn strain were studied. The animals were kept at room temperature with a […] night-day cycle and fed with pellets and water ad libitum. Experimental exercise was performed for running the mice in a treadmill for three times per week, 30 minutes each time at 12 m/min during 3 or 4 months (De Luca et al., 2005; De Luca et al., 2003). […]

[4] = system: mdx mice; assay: Migration of DiI-labeled tendon fibroblasts injected into tibialis anterior of mdx mice; settings: mdx mice pre-treated 1 mg/Kg, tendon fibroblasts injected one week after treatment, analysed after one month, vs vehicle
Experimental: FIG. 7. Andrographolide increases cell migration through fibrosis inhibition. A) Migration of DiI-labeled tendon fibroblast cells after injection into the tibialis anterior of 7-month-old mdx mice (3 months old mdx mice exercised for four months). […] B) Quantitative analysis of the spreading DiI-labeled tendon fibroblast cells was calculated by counting DiI-labeled cells in 200 μm×200 μm squares from three non-serial transverse sections for three mice per group.
3 month old mdx mice were exercised for 4 months and treated with 1 mg/Kg andrographolide or Vehicle. One week after the treatment, mice were anesthetized with an intramuscular injection of physiologic saline (10 ml kg^−1) containing ketamine (5 mg ml^−1) and xylazine (1 mg ml^−1) and then injected with approximately 5×10^5 tendon fibroblasts into the tibialis anterior muscle via a 0.20-mm diameter needle inserted along the cranio-caudal axis of the muscle as previously described (Gargioli et al., 2008). Fibroblasts were previously labeled with 2 mMDiI according to the protocol supplied by the manufacturer (Molecular Probes). One month after the injection, mice were sacrificed for morphological analyses.

Compound: C=C1CC[C@@H]2[C@](C)(CO)[C@H](O)CC[C@@]2(C)[C@@H]1C/C=C1/C(=O)OC[C@H]1O [andrographolide]
- number of positive nuclei for phosphorylated smad2 protein [1]: reduced
- serum CK levels [2]: significant reduction; also recorded: decreased
- CTGF expression (mRNA) in mdx mice [3]: reduced
- DiI-labeled cell distribution in muscle [4]: distributed more homogenously; also recorded: more homogenous
